Results published in US12540131B2 (Merck Sharp & Dohme LLC, priority 2019, dated 2026).

Each molecule was assayed against GST tagged truncated human mutant G2019S LRRK2 (Homo sapiens (Human), UniProt Q5S007, G2019S) (assay: LRRK2 Km ATP LanthaScreen Assay). Conditions: G2019S LRRK2, 134 μM ATP (Km ATP), mean values.
Format: biochemical
Summary of the method: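 Enzyme (GST-tagged, truncated) was preincubated with compound for 15 min at RT in 50 mM Tris pH 8.5, 10 mM MgCl2, 0.01% Brij-35, 1 mM EGTA, 2 mM DTT and 0.05 mM orthovanadate. Fluorescein-LRRKtide and 134 μM ATP (Km) were then added for 90 min. EDTA and Tb-anti-pERM antibody stopped the reaction; the TR-FRET 520/495 ratio gave 4-parameter IC50s, reported as mean pIC50.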

Chain of GST tagged truncated human mutant G2019S LRRK2 (Q5S007 970-2527 G2019S): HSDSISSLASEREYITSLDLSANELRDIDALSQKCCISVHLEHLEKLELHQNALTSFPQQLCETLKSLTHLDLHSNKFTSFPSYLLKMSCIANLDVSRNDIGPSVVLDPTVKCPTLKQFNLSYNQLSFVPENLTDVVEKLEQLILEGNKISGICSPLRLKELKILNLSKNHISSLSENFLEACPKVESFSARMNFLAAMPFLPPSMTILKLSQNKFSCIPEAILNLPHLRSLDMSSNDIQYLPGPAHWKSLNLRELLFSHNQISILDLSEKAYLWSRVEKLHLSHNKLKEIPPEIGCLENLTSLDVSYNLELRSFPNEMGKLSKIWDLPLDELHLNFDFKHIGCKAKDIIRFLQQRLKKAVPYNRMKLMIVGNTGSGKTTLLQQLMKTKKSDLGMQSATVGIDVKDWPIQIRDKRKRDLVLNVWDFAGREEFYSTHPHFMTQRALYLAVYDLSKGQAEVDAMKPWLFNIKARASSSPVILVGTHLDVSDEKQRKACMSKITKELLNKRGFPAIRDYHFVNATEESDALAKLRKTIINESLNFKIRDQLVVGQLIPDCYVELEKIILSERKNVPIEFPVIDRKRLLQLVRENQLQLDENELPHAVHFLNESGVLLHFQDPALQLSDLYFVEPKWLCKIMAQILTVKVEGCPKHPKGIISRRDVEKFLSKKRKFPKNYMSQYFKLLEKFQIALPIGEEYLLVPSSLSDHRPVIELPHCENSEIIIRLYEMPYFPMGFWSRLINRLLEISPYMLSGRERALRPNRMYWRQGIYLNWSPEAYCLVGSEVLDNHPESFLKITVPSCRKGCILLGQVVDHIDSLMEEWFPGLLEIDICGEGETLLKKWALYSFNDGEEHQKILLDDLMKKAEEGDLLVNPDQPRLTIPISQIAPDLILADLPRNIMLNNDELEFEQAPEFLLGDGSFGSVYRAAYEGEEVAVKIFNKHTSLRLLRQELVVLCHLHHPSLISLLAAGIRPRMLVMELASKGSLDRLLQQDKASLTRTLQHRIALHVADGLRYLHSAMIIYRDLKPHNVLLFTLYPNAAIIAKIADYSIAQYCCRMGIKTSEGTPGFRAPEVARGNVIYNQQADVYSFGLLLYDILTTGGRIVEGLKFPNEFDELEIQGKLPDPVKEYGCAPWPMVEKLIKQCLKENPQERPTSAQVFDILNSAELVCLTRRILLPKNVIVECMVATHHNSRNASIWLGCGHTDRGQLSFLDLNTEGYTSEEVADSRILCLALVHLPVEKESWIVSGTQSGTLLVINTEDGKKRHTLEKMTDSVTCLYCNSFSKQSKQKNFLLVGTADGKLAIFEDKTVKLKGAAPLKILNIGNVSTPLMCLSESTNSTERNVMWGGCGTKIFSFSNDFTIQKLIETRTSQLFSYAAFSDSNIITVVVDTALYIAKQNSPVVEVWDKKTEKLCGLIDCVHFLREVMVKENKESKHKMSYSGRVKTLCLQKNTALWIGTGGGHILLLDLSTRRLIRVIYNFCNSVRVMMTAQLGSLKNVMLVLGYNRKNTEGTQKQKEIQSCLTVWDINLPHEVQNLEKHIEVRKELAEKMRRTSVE

| SMILES | LRRK2 pIC50 |
| --- | --- |
| Cn1ncc(Nc2ncc3cc(Cl)c(C4CCN([C@]5(C)COC[C@@H]5O)CC4)cc3n2)c1C(F)(F)F (single isomer, unassigned) [Ex-2.90, (3S,4S) or (3R,4R) 4-(4-(6-chloro-2-((1-methyl-5-(trifluoromethyl)-1H-pyrazol-4-yl)amino)quinazolin-7-yl)piperidin-1-yl)-4-methyltetrahydrofuran-3-olyl)piperidin-1-yl]-4-methyloxolan-3-ol] | >9.20 |
| CC1(N2CCC(n3ncc(Nc4ncc5cc(Cl)c(C6CC6(F)F)cc5n4)c3Cl)C(F)C2)COC1 (single isomer, unassigned) [Ex-3.1, (3R,4R)(7S) or (3R,4R)(7R) or (3S,4S)(7S) or (3S,4S)(7R) 6-chloro-N-(5-chloro-1-(3-fluoro-1-(3-methyloxetan-3-yl)piperidin-4-yl)-1H-pyrazol-4-yl)-7-(2,2-difluorocyclopropyl)quinazolin-2-amine] | 7.54 |
| Cc1c(Nc2ncc3cc(Cl)c(C4CCN(C[C@@H](O)c5c(F)cccc5F)CC4)cc3n2)cnn1C1CC1 [Ex-4.209, (1S)-2-(4-{6-chloro-2-[(1-cyclopropyl-5-methyl-1H-pyrazol-4-yl)amino]quinazolin-7-yl}piperidin-1-yl)-1-(2,6-difluorophenyl)ethan-1-ol] | 8.16 |
| CC(n1ncc(Nc2ncc3cc(Cl)c([C@@H]4CCN(C)C[C@H]4F)cc3n2)c1Cl)C(C)(C)O (single isomer, unassigned) [Ex-4.60, (R)(3S,4S) or (R)(3R,4R) or (S)(3S,4S) or (S)(3R,4R) 3-(5-chloro-4-{[6-chloro-7-(3-fluoro-1-methylpiperidin-4-yl)quinazolin-2-yl]amino}-1H-pyrazol-1-yl)-2-methylbutan-2-ol] | 8.69 |
| Cc1cc2cnc(Nc3cnn(C45CC(C4)C5)c3Cl)nc2cc1[C@@H]1CCN([C@H]2COC[C@H]2O)C[C@H]1F (single isomer, unassigned) [Ex-8.34, (3S,4S)(3S,4S) or (3S,4S)(3R,4R) or (3R,4R)(3S,4S) or (3R,4R)(3R,4R) 4-[4-(2-{[1-(bicyclo[1.1.1]pentan-1-yl)-5-chloro-1H-pyrazol-4-yl]amino}-6-methylquinazolin-7-yl)-3-fluoropiperidin-1-yl]oxolan-3-ol] | >9.20 |
| Cc1c(Nc2ncc3cc(C(F)(F)F)c(C4CCN([C@@]5(C)COC[C@H]5O)CC4)cc3n2)cnn1C1CC1 (single isomer, unassigned) [Ex-9.1, (3S,4S) or (3R,4R) 4-(4-(2-((1-cyclopropyl-5-methyl-1H-pyrazol-4-yl)amino)-6-(trifluoromethyl)quinazolin-7-yl)piperidin-1-yl)-4-methyltetrahydrofuran-3-ol] | 9.19 |
| O[C@H]1COC[C@H]1N1CC[C@H](c2cc3nc(Nc4cnn(C56CC(C5)C6)c4)ncc3cc2Cl)[C@@H](F)C1 (single isomer, unassigned) [Ex-4.156, (3S,4S)(3S,4S) or (3S,4S)(3R,4R) or (3R,4R)(3S,4S) or (3R,4R)(3R,4R) 4-[4-(2-{[1-(bicyclo[1.1.1]pentan-1-yl)-1H-pyrazol-4-yl]amino}-6-chloroquinazolin-7-yl)-3-fluoropiperidin-1-yl]oxolan-3-ol] | >9.20 |
| Cc1nsc(Nc2ncc3cc(Cl)c([C@H]4CCN(C5CCOC5)C[C@@H]4F)cc3n2)c1Cl (single isomer, unassigned) [Ex-8.23, (3S,4S)(S) or (3S,4S)(R) or (3R,4R)(S) or (3R,4R)(R) 6-chloro-N-(4-chloro-3-methyl-1,2-thiazol-5-yl)-7-[3-fluoro-1-(oxolan-3-yl)piperidin-4-yl]quinazolin-2-amine] | 8.12 |
| CC1(O)CCC(c2cc3nc(Nc4cnn(C5CC5)c4)ncc3cc2Cl)CC1 (stereo not drawn) [Ex-1.18, cis-or trans-4-(6-chloro-2-((1-cyclopropyl-1H-pyrazol-4-yl)amino)quinazolin-7-yl)-1-methylcyclohexan-1-ol] | 8.59 |
| CC1(N2CCC(c3cc4nc(Nc5cnn(C6(C)CC6)c5Cl)ncc4cc3Cl)CC2)COC1 [Ex-8.15, 6-chloro-N-[5-chloro-1-(1-methylcyclopropyl)-1H-pyrazol-4-yl]-7-[1-(3-methyloxetan-3-yl)piperidin-4-yl]quinazolin-2-amine] | >9.20 |
| Cc1c(Nc2ncc3cc(Cl)c(C4C[C@H]5C[C@@H]4CN5C4COC4)cc3n2)cnn1C1CC1 (single isomer, unassigned) [Ex-4.126, (1S,4S) or (1R,4R) 6-chloro-N-(1-cyclopropyl-5-methyl-1H-pyrazol-4-yl)-7-[2-(oxetan-3-yl)-2-azabicyclo[2.2.1]heptan-5-yl]quinazolin-2-amine] | 7.64 |
| Cn1ncc(Nc2ncc3cc(Cl)c([C@@H]4CCN([C@H]5COC[C@H]5O)C[C@H]4F)cc3n2)c1C1CC1 (single isomer, unassigned) [Ex-4.240, (3S,4S)(3S,4S) or (3S,4S)(3R,4R) or (3R,4R)(3S,4S) or (3R,4R)(3R,4R) 4-(4-{6-chloro-2-[(5-cyclopropyl-1-methyl-1H-pyrazol-4-yl)amino]quinazolin-7-yl}-3-fluoropiperidin-1-yl)oxolan-3-ol] | 7.57 |
| COC[C@]12C[C@](n3ncc(Nc4ncc5cc(Cl)c(C6CCN(C7(C)COC7)CC6)cc5n4)c3Cl)(C1)C2 [Ex-8.40] | >9.20 |
| O[C@@H]1COCC1N1CC[C@@H](c2cc3nc(Nc4cnn(C5CC5)c4Cl)ncc3cc2Cl)[C@H](F)C1 (single isomer, unassigned) [Ex-4.123, (3S,4S)(3S,4S) or (3S,4S)(3R,4R) or (3R,4R)(3S,4S) or (3R,4R)(3R,4R) 4-{6-chloro-2-[(5-chloro-1-cyclopropyl-1H-pyrazol-4-yl)amino]quinazolin-7-yl}-3-fluoropiperidin-1-yl]oxolan-3-ol] | 8.37 |
| COC(C)(C)C12CC(n3cc(Nc4ncc5cc(Cl)c(C6CCN(C7(C)COC7)CC6)cc5n4)cn3)(C1)C2 [Ex-2.56, 6-chloro-N-{1-[3-(2-methoxypropan-2-yl)bicyclo[1.1.1]pentan-1-yl]-1H-pyrazol-4-yl}-7-[1-(3-methyloxetan-3-yl)piperidin-4-yl]quinazolin-2-amine] | 8.75 |
| CC(n1ncc(Nc2ncc3cc(Cl)c(C4CCN(C5COC5)CC4)cc3n2)c1Cl)C(C)(C)O (single isomer, unassigned) [Ex-4.62, (8) or (R) 3-[5-chloro-4-({6-chloro-7-[1-(oxetan-3-yl)piperidin-4-yl]quinazolin-2-yl}amino)-1H-pyrazol-1-yl]-2-methylbutan-2-ol] | >9.20 |
| Cc1cc2cnc(Nc3cnn(C4CC4(F)F)c3C)nc2cc1[C@@H]1CCN([C@@H]2COC[C@@H]2O)C[C@H]1F (single isomer, unassigned) [Ex-4.146, (R)(3S,4S)(3S,4S) or (R)(3S,4S)(3R,4R) or (R)(3R,4R)(3S,4S) or (R)(3R,4R)(3R,4R) or (S)(3S,4S)(3S,4S) or (S)(3S,4S)(3R,4R) or (S)(3R,4R)(3S,4S) or (S)(3R,4R)(3R,4R) 4-[4-(2-{[1-(2,2-difluorocyclopropyl)-5-methyl-1H-pyrazol-4-yl]amino}-6-methylquinazolin-7-yl)-3-fluoropiperidin-1-yl]oxolan-3-ol] | >9.20 |
| COC[C@@H](O)CN1CCC(c2cc3nc(Nc4cnn(C5CC5)c4C)ncc3cc2Cl)CC1 [Ex-4.212, (2S)-1-(4-{6-chloro-2-[(1-cyclopropyl-5-methyl-1H-pyrazol-4-yl)amino]quinazolin-7-yl}piperidin-1-yl)-3-methoxypropan-2-ol] | 8.75 |
| Cc1c(Nc2ncc3cc(Cl)c(C4CCN(C5COC5C)CC4)cc3n2)cnn1C(C)(C)C#N (single isomer, unassigned) [Ex-4.133, (2R,3R) or (2S,3S) or (2S,3R) or (2R,3S) 2-[4-({6-chloro-7-[1-(2-methyloxetan-3-yl)piperidin-4-yl]quinazolin-2-yl}amino)-5-methyl-1H-pyrazol-1-yl]-2-methylpropanenitrile] | 8.92 |
| CC(C)(O)Cn1ncc(Nc2ncc3cc(Cl)c(C4CCN(C5COC5)CC4)cc3n2)c1Cl [Ex-4.3, 1-(5-chloro-4-((6-chloro-7-(1-(oxetan-3-yl)piperidin-4-yl)quinazolin-2-yl)amino)-1H-pyrazol-1-yl)-2-methylpropan-2-ol] | >9.20 |
| Cc1c(Nc2ncc3cc(Cl)c(C4CCN([C@@H]5COC[C@@H]5O)CC4)cc3n2)cnn1C(C)(C)C#N (single isomer, unassigned) [Ex-2.74, (3S,4S) or (3R,4R) 2-[4-({6-chloro-7-[1-(4-hydroxyoxolan-3-yl)piperidin-4-yl]quinazolin-2-yl}amino)-5-methyl-1H-pyrazol-1-yl]-2-methylpropanenitrile] | >9.20 |

Same assay, conditions: G2019S LRRK2, 134 μM ATP (Km ATP), mean values; read-out: LRRK2 pIC50 (converted)

| SMILES | IC50 |
| --- | --- |
| Cc1c(Nc2ncc3cc(Cl)c(C4CCN(C5(C)COC5)CC4)cc3n2)cnn1C1CC1(F)F (single isomer, unassigned) [Ex-2.29, (S) or (R) 6-chloro-N-[1-(2,2-difluorocyclopropyl)-5-methyl-1H-pyrazol-4-yl]-7-[1-(3-methyloxetan-3-yl)piperidin-4-yl]quinazolin-2-amine] | 1.66 nM |
| Cc1c(Nc2ncc3cc(Cl)c(C4CCN(CC(O)c5ccc(C#N)cc5)CC4)cc3n2)cnn1C1CC1 (single isomer, unassigned) [Ex-4.220, (S) or (R) 4-[2-(4-{6-chloro-2-[(1-cyclopropyl-5-methyl-1H-pyrazol-4-yl)amino]quinazolin-7-yl}piperidin-1-yl)-1-hydroxyethyl]benzonitrile] | 6.17 nM |
| Clc1cc2cnc(Nc3cnn(C4CC4)c3Cl)nc2cc1C1CCN(C2CCOC2)CC1 (single isomer, unassigned) [Ex-4.48, (S) or (R) 6-chloro-N-(5-chloro-1-cyclopropyl-1H-pyrazol-4-yl)-7-[1-(oxolan-3-yl)piperidin-4-yl]quinazolin-2-amine] | 0.891 nM |
